Experimental data taken from patent publication US10881099B2, “Process to improve crop yield” (priority 2016, dated 2021).

Columns and labels:
[1] = tested on: azoxystrobin (QoI)-resistant (R) strains of Colletotrichum acutatum; assay: Example 2: pre-plant dip of strawberry plants inoculated with azoxystrobin-resistant isolate, field trial; assay type: in vivo; settings: for DI: Disease incidence (average) / DS: Disease severity, by ranking (average) 0-4: after four weeks; for W: Weight (average) / Y: Yield (average): after six weeks
[2] = tested on: azoxystrobin (QoI)-sensitive (S) strains of Colletotrichum acutatum; assay: Example 2: pre-plant dip of strawberry plants inoculated with azoxystrobin-sensitive isolate, field trial; assay type: in vivo; settings: for DI: Disease incidence (average) / DS: Disease severity, by ranking (average) 0-4: after four weeks; for W: Weight (average) / Y: Yield (average): after six weeks
[3] = tested on: anthracnose (Colletotrichum acutatum), naturally infected plants; assay: Example 2: pre-plant dip of naturally infected strawberry plants (Nursery 2), field trial; assay type: in vivo; settings: cv. Portola (Nursery 2); for DI: Disease incidence (average) / DS: Disease severity, by ranking (average) 0-4 / LSI: Leaf spot incidence (average): after four weeks; for W: Weight (average) / Y: Yield (average): after six weeks
[4] = tested on: Colletotrichum acutatum; assay: Example 1: pre-plant dip of cv. Portola baby strawberry plants with natamycin, fruit yield after 6 weeks; assay type: in vivo
Experimental: Baby strawberry plants of cv. Portola were either inoculated or non-inoculated (naturally infected). Inoculation was done by dipping plants for 4 minutes in conidial suspensions of Colletotrichum acutatum, and then drip-dried. Plants were then stored for 8 h at 20° C., or 3 days at 5° C. […] The plants were then planted in different rows for each treatment, one feet apart and the yield was evaluated for fruit yield after 6 weeks. See below Table 1 for results.

[5] = tested on: mixture of four Colletotrichum acutatum isolates, two sensitive and two resistant to QoI fungicides; assay: Example 3: dip treatments on Florida Radiance transplants for control of Colletotrichum acutatum; assay type: in vivo; settings: cv. Florida Radiance; for Plant diameter / Plant diameter compared to the non-treated control (in words): 35 DAP; for Yield (marketable fruit): seven harvests
[6] = tested on: fungi within the Ascomycota (e.g. Botrytis and Colletotrichum spp.) and Zygomycota (e.g. Rhizopus stolonifer); settings: for most of these organisms; cited from earlier work
[7] = tested on: strawberry plants (two plant cultivars); settings: in vivo
Experimental: Plants were evaluated periodically for disease and phytotoxicity over the course of the trial. As plants develop disease symptoms, fungal isolations were done from diseased tissue to validate the symptoms as anthracnose. For this, pieces of crown and leaf tissues from the margins between diseased and healthy tissue were surface-sterilized with sodium hypochlorite and rinsed with sterile, distilled water. A small sample of this plant tissue was removed, cut into pieces, and plated onto 10-cm potato dextrose agar media plates amended with ampicillin and rifampicin to inhibit bacterial growth. Plates were incubated for 5-6 days at 25° C., and fungal colonies were identified using morphological characteristics. A subset of fungal colonies was confirmed by PCR using species-specific primers for Colletotrichum acutatum (Förster and Adaskaveg, Phytopathology (1999) 89 1056-1065).

[8] = cv. Fronteras (Nursery 1), 4 min dip, rates/150 gal: Actinovate 24 oz., azoxystrobin 8 fl. oz., Bravo 24 fl. oz., Switch 8 oz.
[9] = cv. Fronteras (Nursery 1), rates/150 gal: Actinovate 24 oz., azoxystrobin 8 fl. oz., Bravo 24 fl. oz., Switch 8 oz.
[10] = cv. Portola (Nursery 1), 4 min dip, rates/150 gal: Actinovate 24 oz., azoxystrobin 8 fl. oz., Bravo 24 fl. oz., Switch 8 oz.
[11] = cv. Portola (Nursery 1), rates/150 gal: Actinovate 24 oz., azoxystrobin 8 fl. oz., Bravo 24 fl. oz., Switch 8 oz.
[12] = 4 min dip, rates/150 gal: Actinovate 24 oz., azoxystrobin 8 fl. oz., Bravo 24 fl. oz., Switch 8 oz.
[13] = rates/150 gal: Actinovate 24 oz., azoxystrobin 8 fl. oz., Bravo 24 fl. oz., Switch 8 oz.
[14] = natamycin 26.6 fl. oz./100 gal. (dipped in the field)
[15] = natamycin 26.6 fl. oz./100 gal. (dipped indoors to avoid sunlight)
[16] = cv. Fronteras (Nursery 1), natamycin 13.3 oz. per 150 gal.
[17] = cv. Fronteras (Nursery 1), natamycin 26.6 oz. per 150 gal.
[18] = cv. Portola (Nursery 1), natamycin 13.3 oz. per 150 gal.
[19] = cv. Portola (Nursery 1), natamycin 26.6 oz. per 150 gal.
[20] = natamycin 13.3 oz. per 150 gal.
[21] = natamycin 26.6 oz. per 150 gal.

CO/C=C(/C(=O)OC)c1ccccc1Oc1cc(Oc2ccccc2C#N)ncn1 [Azoxystrobin]
DI: Disease incidence (average) [1, 8]: 100.0%
DS: Disease severity, by ranking (average) 0-4 [1, 8]: 2.9
W: Weight (average) [1, 9]: 7.9 g per fruit
Y: Yield (average) [1, 9]: 16.4 g per treated plot
DI: Disease incidence (average) [1, 10]: 100.0%
DS: Disease severity, by ranking (average) 0-4 [1, 10]: 4.0
W: Weight (average) [1, 11]: 0.0 g per fruit
Y: Yield (average) [1, 11]: 0.0 g per treated plot
DI: Disease incidence (average) [2, 8]: 7.5%
DS: Disease severity, by ranking (average) 0-4 [2, 8]: 0.2
W: Weight (average) [2, 9]: 10.68 g per fruit
Y: Yield (average) [2, 9]: 378.1 g per treated plot
DI: Disease incidence (average) [2, 10]: 33.1%
DS: Disease severity, by ranking (average) 0-4 [2, 10]: 0.8
W: Weight (average) [2, 11]: 6.4 g per fruit
Y: Yield (average) [2, 11]: 157.7 g per treated plot
DI: Disease incidence (average) [3, 12]: 41.7%
DS: Disease severity, by ranking (average) 0-4 [3, 12]: 0.5
LSI: Leaf spot incidence (average) [3, 12]: 0.5 number of spots
W: Weight (average) [3, 13]: 9.8 g per fruit
Y: Yield (average) [3, 13]: 1114.8 g per treated plot

C[C@@H]1C/C=C/C=C/C=C/C=C/[C@H](O[C@@H]2O[C@H](C)[C@@H](O)[C@H](N)[C@@H]2O)C[C@@H]2O[C@](O)(C[C@@H](O)C[C@H]3O[C@@H]3/C=C/C(=O)O1)C[C@H](O)[C@H]2C(=O)O [Natamycin, natamycin]
Average weight per individual strawberry ([4]; natamycin 13.3 oz./150 gallon): 8.7 g
Average weight per individual strawberry ([4]; natamycin 26.6 oz./150 gallon): 8.7 g
Plant diameter [5, 14]: 5.7 bcd in
Plant diameter [5, 15]: 5.9 abc in
Plant diameter compared to the non-treated control (in words) ([5]; natamycin dipped in the field: excepted from the treatments that significantly increased plant diameter): With the exception of natamycin (dipped in the field)
Plant diameter compared to the non-treated control (in words) ([5]; natamycin: treatment dipped indoors): significantly increased plant diameter
Disease incidence (diseased plants, dead+wilted) ([5]; 42 DAP, natamycin 26.6 fl. oz./100 gal. (dipped in the field)): 2.5 de %
Disease incidence (diseased plants, dead+wilted) ([5]; 42 DAP, natamycin 26.6 fl. oz./100 gal. (dipped indoors to avoid sunlight)): 0.0 e %
Disease incidence (diseased plants, dead+wilted) ([5]; 42 DAP, natamycin 26.6 fl. oz./100 gal. (dipped indoors to avoid sunlight), listed as natamycin): 0.0%
Disease incidence compared to the non-treated control (in words) ([5]; 42 DAP, natamycin: both treatments (field and indoors)): reduced disease incidence compared to the non-treated control
Yield compared to the non-treated control (in words) ([5]; natamycin: dipped in the field): higher yields than the non-treated control
Yield (marketable fruit) [5, 14]: 2924 abc lb./A
Yield (marketable fruit) [5, 15]: 2547 bcde lb./A
DI: Disease incidence (average) [1, 16]: 37.5%
DS: Disease severity, by ranking (average) 0-4 [1, 16]: 0.8
DI: Disease incidence (average) [1, 17]: 54.2%
DS: Disease severity, by ranking (average) 0-4 [1, 17]: 1.3
W: Weight (average) [1, 16]: 8.9 g per fruit
Y: Yield (average) [1, 16]: 261.7 g per treated plot
W: Weight (average) [1, 17]: 9.3 g per fruit
Y: Yield (average) [1, 17]: 145.2 g per treated plot
DI: Disease incidence (average) [1, 18]: 82.5%
DS: Disease severity, by ranking (average) 0-4 [1, 18]: 2.2
DI: Disease incidence (average) [1, 19]: 29.4%
DS: Disease severity, by ranking (average) 0-4 [1, 19]: 0.4
W: Weight (average) [1, 18]: 7.9 g per fruit
Y: Yield (average) [1, 18]: 112.4 g per treated plot
W: Weight (average) [1, 19]: 8.6 g per fruit
Y: Yield (average) [1, 19]: 235.0 g per treated plot
efficacy when plants are inoculated with azoxystrobin-resistant isolates (in words) ([1]; pre-plant dip): very effective
minimum inhibitory concentration [6]: < 10 ppm
DI: Disease incidence (average) [2, 16]: 37.5%
DS: Disease severity, by ranking (average) 0-4 [2, 16]: 0.8
DI: Disease incidence (average) [2, 17]: 32.5%
DS: Disease severity, by ranking (average) 0-4 [2, 17]: 0.6
W: Weight (average) [2, 16]: 8.14 g per fruit
Y: Yield (average) [2, 16]: 161.8 g per treated plot
W: Weight (average) [2, 17]: 8.31 g per fruit
Y: Yield (average) [2, 17]: 161.1 g per treated plot
DI: Disease incidence (average) [2, 18]: 32.5%
DS: Disease severity, by ranking (average) 0-4 [2, 18]: 0.8
DI: Disease incidence (average) [2, 19]: 27.5%
DS: Disease severity, by ranking (average) 0-4 [2, 19]: 0.4
W: Weight (average) [2, 18]: 7.9 g per fruit
Y: Yield (average) [2, 18]: 224.1 g per treated plot
W: Weight (average) [2, 19]: 7.0 g per fruit
Y: Yield (average) [2, 19]: 188.4 g per treated plot
DI: Disease incidence (average) [3, 20]: 57.5%
DS: Disease severity, by ranking (average) 0-4 [3, 20]: 0.9
LSI: Leaf spot incidence (average) [3, 20]: 0.6 number of spots
DI: Disease incidence (average) [3, 21]: 53.7%
DS: Disease severity, by ranking (average) 0-4 [3, 21]: 0.7
LSI: Leaf spot incidence (average) [3, 21]: 0.4 number of spots
W: Weight (average) [3, 20]: 8.7 g per fruit
Y: Yield (average) [3, 20]: 714.4 g per treated plot
W: Weight (average) [3, 21]: 8.7 g per fruit
Y: Yield (average) [3, 21]: 742.5 g per treated plot
phytotoxicity [7]: no phytotoxicity is observed
